For data set [1], the target named is transient receptor potential melastatin 8 (TRPM8) (Homo sapiens, UniProt Q7Z2W7). To be noted: increase of [Ca2+]i; cited from earlier work.
The test system of a further data set is Spodoptera litum larvae. To be noted: cited from earlier work.
Data set [2] deals with most gram-positive and some gram-negative bacteria. To be noted: cited from earlier work.
The next data set deals with SAMP8 mice. The conditions noted are these: intragastric, 4-month-old SAMP8 mice, 2 months; cited from earlier work.
A further data set has as its target CYP2C19 (Homo sapiens, UniProt P33261). To be noted: cited from earlier work.
For a further data set, the target named is CYP2C8 (Homo sapiens, UniProt P10632). The conditions noted are these: cited from earlier work.
CYP2C8, sequence (P10632 whole entry): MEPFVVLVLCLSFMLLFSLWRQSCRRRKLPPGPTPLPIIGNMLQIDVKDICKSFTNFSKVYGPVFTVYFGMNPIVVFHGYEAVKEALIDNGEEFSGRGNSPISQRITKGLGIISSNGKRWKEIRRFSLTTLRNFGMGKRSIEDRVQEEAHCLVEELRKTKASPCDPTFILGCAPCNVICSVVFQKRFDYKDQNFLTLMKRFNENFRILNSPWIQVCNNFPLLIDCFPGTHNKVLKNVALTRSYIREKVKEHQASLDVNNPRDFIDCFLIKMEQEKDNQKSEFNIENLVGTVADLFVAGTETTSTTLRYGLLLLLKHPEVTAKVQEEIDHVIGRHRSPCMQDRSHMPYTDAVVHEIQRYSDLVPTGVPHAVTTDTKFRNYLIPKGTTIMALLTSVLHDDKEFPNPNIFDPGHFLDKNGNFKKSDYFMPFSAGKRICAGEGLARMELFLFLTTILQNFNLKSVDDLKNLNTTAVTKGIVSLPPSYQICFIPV
The next data set addresses CYP2C9 (Homo sapiens, UniProt P11712). The conditions noted are these: cited from earlier work.
In the next data set the test system is brain blood flow. The conditions noted are these: 450 mg/kg during a 15-minute period, after simvastatin 2 mg/kg subcutaneously daily for 14 days, SV-129 mice; cited from earlier work.
In the next data set the test system is severe sepsis. To be noted: patients with severe sepsis, placebo cohort 24%; cited from earlier work.
For data set [3] the following is noted: 510 mg/day, patients, cited from earlier work.
Data set [4] has as its target N-methyl-D-aspartate receptors (NMDARs). The conditions noted are these: glycine-binding site; read-out: KB, competitive antagonist of NMDARs; cited from earlier work.
The next data set addresses SIRT1 (Homo sapiens, UniProt Q96EB6). The conditions noted are these: cited from earlier work.
The conditions of data set [5]: static toxicity tests; cited from earlier work.
Data set [6] concerns mouse skin carcinogenesis. To be noted: cited from earlier work.
Another data set has as its system carrageenan. To be noted: 25, 50 or 100 mg/kg, i.p., immediately and 2 h after carrageenan; cited from earlier work.
Data set [7] concerns fever induced by lipopolysaccharide (LPS). The conditions noted are these: 50 or 100 mg/kg, i.p., 0 and 2 h; rats; cited from earlier work.
Data set [8] addresses cyclo-oxygenase-2 (COX-2) (Homo sapiens, UniProt P35354). The conditions noted are these: independently of NF-κB activation; cited from earlier work.
For data set [9], the system named is fibroblasts, peripheral blood mononuclear cells (PBMCs), myoblasts. The data set is described as follows: Reversal of aging (predicted age) in cultured young/old cells contacted with disulfiram plus potentiating ingredients. In kind it is cell-based. To be noted: concentrations 0.000005 to 80 μM; potentiating ingredient as high as 25 μM.
Another data set concerns THP1 HMGB1 Lucia cells. The data set can be described thus: Pyroptosis inhibition luciferase assay, LPS + nigericin, HMGB1 reporter (QUANTI-Luc). In kind it is cell-based. The conditions noted are these: compound alone; 1 μg/ml LPS 3 h, then 10 μM nigericin 3 h.
A further data set relates to neuroblastoma cells. The conditions noted are these: cited from earlier work.
The next data set has as its system influenza virus H1N1. To be noted: cited from earlier work.
In data set [10] the test system is ProDH (proline dehydrogenase). To be noted: competitive; plants; cited from earlier work.
For data set [11] the following is noted: rats, doses up to 2000 mg/kg bw; cited from earlier work.
For data set [12] the following is noted: doses up to 750 mg/kg bw; cited from earlier work.

SIRT1, sequence (Q96EB6 whole entry, species assumed): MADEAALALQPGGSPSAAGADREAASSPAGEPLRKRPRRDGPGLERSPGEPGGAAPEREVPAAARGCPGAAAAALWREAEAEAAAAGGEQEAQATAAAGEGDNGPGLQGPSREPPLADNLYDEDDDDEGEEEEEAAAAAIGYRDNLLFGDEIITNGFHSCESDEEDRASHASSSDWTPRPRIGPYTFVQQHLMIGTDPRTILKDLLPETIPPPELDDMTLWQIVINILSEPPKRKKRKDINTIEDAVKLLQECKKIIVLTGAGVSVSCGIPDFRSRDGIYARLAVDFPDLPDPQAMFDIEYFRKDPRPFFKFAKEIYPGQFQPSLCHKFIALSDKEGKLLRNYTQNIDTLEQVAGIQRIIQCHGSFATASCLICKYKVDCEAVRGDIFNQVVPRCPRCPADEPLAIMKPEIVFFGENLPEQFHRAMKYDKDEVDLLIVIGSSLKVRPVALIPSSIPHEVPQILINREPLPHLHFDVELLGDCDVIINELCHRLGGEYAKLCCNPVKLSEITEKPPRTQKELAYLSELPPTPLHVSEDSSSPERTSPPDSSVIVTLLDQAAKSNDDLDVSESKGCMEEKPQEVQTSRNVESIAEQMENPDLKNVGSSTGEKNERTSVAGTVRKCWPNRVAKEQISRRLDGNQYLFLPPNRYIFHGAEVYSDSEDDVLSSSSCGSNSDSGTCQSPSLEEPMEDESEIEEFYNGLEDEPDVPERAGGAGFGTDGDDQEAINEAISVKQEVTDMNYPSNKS
cyclo-oxygenase-2 (COX-2), sequence (P35354 18-604, species assumed): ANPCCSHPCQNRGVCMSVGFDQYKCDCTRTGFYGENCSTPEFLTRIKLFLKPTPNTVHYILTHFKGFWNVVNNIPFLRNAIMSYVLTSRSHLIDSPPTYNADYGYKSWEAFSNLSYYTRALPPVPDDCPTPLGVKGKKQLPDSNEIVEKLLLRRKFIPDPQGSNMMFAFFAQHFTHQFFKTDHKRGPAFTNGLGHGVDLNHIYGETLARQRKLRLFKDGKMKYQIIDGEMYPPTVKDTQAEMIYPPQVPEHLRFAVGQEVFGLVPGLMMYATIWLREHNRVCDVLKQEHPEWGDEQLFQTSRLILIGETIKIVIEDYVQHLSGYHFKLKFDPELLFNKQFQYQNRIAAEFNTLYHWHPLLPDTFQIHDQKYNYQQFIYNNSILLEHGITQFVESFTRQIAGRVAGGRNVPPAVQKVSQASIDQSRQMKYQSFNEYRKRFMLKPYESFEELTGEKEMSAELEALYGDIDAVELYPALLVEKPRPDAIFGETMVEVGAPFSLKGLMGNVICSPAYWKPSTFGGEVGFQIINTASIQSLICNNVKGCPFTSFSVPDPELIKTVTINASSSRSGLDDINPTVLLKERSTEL
CYP2C9, sequence (P11712 whole entry, species assumed): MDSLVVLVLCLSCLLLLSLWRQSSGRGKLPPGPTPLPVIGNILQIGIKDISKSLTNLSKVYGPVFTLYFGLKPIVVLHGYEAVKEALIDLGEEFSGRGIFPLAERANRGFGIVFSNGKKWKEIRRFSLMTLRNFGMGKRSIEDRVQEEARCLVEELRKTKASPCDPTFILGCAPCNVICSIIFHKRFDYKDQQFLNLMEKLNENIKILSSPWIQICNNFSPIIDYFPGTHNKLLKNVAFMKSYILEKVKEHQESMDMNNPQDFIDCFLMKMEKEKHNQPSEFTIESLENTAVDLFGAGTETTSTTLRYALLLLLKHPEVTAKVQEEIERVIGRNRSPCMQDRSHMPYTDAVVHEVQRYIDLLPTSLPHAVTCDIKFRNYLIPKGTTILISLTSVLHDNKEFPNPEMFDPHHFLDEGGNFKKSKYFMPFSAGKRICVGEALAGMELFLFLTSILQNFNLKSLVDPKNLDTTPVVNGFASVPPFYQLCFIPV
CYP2C19, sequence (P33261 whole entry, species assumed): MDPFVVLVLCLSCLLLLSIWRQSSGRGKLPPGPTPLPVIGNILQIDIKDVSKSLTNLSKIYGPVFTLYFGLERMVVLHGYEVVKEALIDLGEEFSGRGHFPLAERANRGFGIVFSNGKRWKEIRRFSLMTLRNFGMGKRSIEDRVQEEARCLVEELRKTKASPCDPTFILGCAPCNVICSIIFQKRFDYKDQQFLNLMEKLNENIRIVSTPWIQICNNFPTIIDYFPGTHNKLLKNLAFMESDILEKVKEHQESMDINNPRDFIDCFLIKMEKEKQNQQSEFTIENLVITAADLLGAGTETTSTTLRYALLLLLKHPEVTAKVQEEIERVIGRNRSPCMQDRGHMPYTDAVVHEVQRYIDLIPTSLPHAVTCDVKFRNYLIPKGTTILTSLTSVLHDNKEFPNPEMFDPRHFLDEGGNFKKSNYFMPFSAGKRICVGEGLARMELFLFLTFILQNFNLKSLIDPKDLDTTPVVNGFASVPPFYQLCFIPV
transient receptor potential melastatin 8 (TRPM8), sequence (Q7Z2W7 whole entry, species assumed): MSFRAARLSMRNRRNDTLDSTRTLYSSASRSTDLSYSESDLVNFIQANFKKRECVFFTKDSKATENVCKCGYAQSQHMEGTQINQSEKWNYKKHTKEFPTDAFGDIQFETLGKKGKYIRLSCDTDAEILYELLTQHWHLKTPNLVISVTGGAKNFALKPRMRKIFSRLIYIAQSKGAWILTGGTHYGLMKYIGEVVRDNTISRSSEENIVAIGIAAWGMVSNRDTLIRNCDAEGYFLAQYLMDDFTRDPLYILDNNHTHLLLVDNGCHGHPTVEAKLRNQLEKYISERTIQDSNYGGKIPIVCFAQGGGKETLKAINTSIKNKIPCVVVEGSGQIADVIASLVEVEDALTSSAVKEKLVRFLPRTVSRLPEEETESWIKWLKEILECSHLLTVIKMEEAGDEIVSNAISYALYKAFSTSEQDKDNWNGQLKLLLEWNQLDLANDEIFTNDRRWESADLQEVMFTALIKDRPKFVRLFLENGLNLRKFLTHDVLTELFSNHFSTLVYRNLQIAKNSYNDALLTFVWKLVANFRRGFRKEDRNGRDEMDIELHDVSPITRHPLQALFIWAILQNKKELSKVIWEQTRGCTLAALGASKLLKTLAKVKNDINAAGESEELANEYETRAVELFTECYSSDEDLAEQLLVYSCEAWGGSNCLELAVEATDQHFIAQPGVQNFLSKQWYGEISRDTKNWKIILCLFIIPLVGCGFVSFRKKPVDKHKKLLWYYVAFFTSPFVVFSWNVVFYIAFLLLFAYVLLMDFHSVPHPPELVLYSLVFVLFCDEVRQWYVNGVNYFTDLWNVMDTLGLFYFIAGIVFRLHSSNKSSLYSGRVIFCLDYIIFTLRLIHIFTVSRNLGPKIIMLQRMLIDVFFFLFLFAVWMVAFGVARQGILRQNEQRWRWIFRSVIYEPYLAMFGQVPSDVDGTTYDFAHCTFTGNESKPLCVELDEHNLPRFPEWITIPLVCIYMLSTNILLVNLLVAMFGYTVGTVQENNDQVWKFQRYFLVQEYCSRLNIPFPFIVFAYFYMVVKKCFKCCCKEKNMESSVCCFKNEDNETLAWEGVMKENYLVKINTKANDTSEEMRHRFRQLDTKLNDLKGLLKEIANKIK

`CC1CCC(C(C)C)C(O)C1` (single isomer, unassigned; (-)) [(−)-Menthol]: in data set [1], the “binding and activation of TRPM8” value was “(−)-Menthol is a key component of peppermint oil that binds and activates”.

With `CCCC=C1OC(=O)c2ccccc21` [3-Butylidenephthalide], in the data set on Spodoptera litum larvae, the “LC50, larvicidal activity” value was “activity (LC50 of 1.56 mg/g for Spodoptera litum larvae)”.

In the case of `O=C(O)c1ccc(O)cc1` [4-Hydroxybenzoic acid], the “IC50, inhibition of most gram-positive and some gram-negative bacteria” value in data set [2] is reported as “IC50 of 160 μg/mL”.

Consider `CCCCC1OC(=O)c2ccccc21` (centres unmarked) [Butylphthalide], for which the “spatial learning and memory ability” value in the data set on SAMP8 mice was 2 months significantly improved spatial learning and memory ability.

In the case of `C[C@@H]1CC[C@H]2C(C)(C)[C@H]3C[C@@]12CC[C@@]3(C)O` [Cedrol], the “inhibitory effect on CYP2C19” value on CYP2C19 is listed as “weak”. For the same compound, the “inhibitory effect on CYP2C8” value at CYP2C8 was “weak”. For the same compound, the “inhibitory effect on CYP2C9” value at CYP2C9 is listed as “weak”.

As to `N=C(N)NCCC[C@H](N)C(=O)O` [L-Arginine], the hyperemia result in the data set on brain blood flow was “minute period) amplifies and sustains the hyperemia (38%) and increases”. Further, the “Resolution of shock at 72 hours, share of patients” value with severe sepsis was 72 hours is achieved by 40% and 24% of the patients in the L-Arginine.

Consider `C[N+](C)(C)C[C@H](O)CC(=O)[O-]` [L-Carnitine], for which the “total time for dozing off during the daytime” value in [3] (versus placebo-treated periods) is listed as “L-carnitine (Levocarnitine) treatment significantly improved the total”. In addition, in data set [3], the serum acylcarnitine levels result was “L-carnitine (Levocarnitine) efficiently increased serum acylcarnitine”; the serum triglycerides concentration entry is “levels, and reduced serum triglycerides concentration”.

Broadly, the Kb is the affinity of an antagonist, worked out from how it opposes an agonist. Regarding `N[C@@H](Cc1ccccc1)C(=O)O` [L-Phenylalanine], the antagonist equilibrium constant (Kb) in data set [4] was 573 µM.

With `NC(=O)c1cccnc1` [Nicotinamide], the “inhibition of SIRT1” value at SIRT1 is reported as “reactions. Nicotinamide is an inhibitor of SIRT1”.

Consider `CCCCCCCCC(=O)NCc1ccc(O)c(OC)c1` [Nonivamide], for which the 4d-EC50 in [5] is given as 5.1 mg/L in static toxicity tests.

For `CCCCCCCC(=O)CCc1ccc(O)c(OC)c1` [Paradol], the “inhibition of tumor promotion” value in [6] was “Zingiberaceae plants. Paradol is an effective inhibitor of tumor promotion”.

`Cc1cc2nc3c(=O)[nH]c(=O)nc-3n(C[C@H](O)[C@H](O)[C@H](O)CO)c2cc1C` [Riboflavin]: the “antiedema and antinociceptive effects” value with carrageenan is “induced antiedema and antinociceptive effects. The antinociceptive effect”. For the same compound, the “effect on LPS-induced fever” value in data set [7] is “inhibited the fever induced by lipopolysaccharide (LPS) in rats”.

Consider `O=C(O)c1ccccc1O` [Salicylic acid], for which, in [8], the “inhibition of COX-2 activity” value is “Salicylic acid (2-Hydroxybenzoic acid) inhibits cyclo-oxygenase-2”.

`CC(C)(C)c1cc(O)ccc1O` [TBHQ, tert-Butylhydroquinone]: the “ability in combination with disulfiram to reverse aging in the cells” value in data set [9] was “identified as a potentiating ingredient”. The “pyroptosis inhibition (HMGB1 luciferase reporter in supernatant)” value in the data set on THP1 HMGB1 Lucia cells is “no effect on pyroptosis inhibition or a clear IC50”.

Consider `COc1cc(CCC(C)=O)ccc1O` [Zingerone], for which the “growth of neuroblastoma cells” value with neuroblastoma cells was “agent, and inhibits the growth of neuroblastoma cells”.

In the case of `OC[C@H]1O[C@@H]2O[C@H]3[C@H](O)[C@@H](O)[C@@H](O[C@H]4[C@H](O)[C@@H](O)[C@@H](O[C@H]5[C@H](O)[C@@H](O)[C@@H](O[C@H]6[C@H](O)[C@@H](O)[C@@H](O[C@H]7[C@H](O)[C@@H](O)[C@@H](O[C@H]8[C@H](O)[C@@H](O)[C@@H](O[C@H]1[C@H](O)[C@H]2O)O[C@@H]8CO)O[C@@H]7CO)O[C@@H]6CO)O[C@@H]5CO)O[C@@H]4CO)O[C@@H]3CO` [β-Cyclodextrin], the anti-influenza virus activity entry in the data set on influenza virus H1N1 is given as “Cyclodextrin has anti-influenza virus H1N1 activities”.

In the case of D-(-)-Lactic acid, in data set [10], the “inhibition of ProDH” value is given as “inhibitor of ProDH (proline dehydrogenase) in plants”.

On to Rebaudioside A, for which, in [11], the “genotoxic effects, unscheduled DNA synthesis test” value is reported as “rebaudioside A do not cause any genotoxic effects at any of the doses”. For the same compound, the “genotoxic effects, mouse micronucleus test” value in data set [12] is given as “rebaudioside A do not cause any genotoxic effects at any of the doses”.

(Values after US11065214B1, “Combination therapies with disulfiram” (Spring Discovery, Inc., priority 2020, dated 2021).)
